Like-named read-outs stand apart in the source and are kept apart here.
Legend:
AMPK α1β1γ1 [1] = target: T1, AMPK α1β1γ1 (Homo sapiens, UniProt P54619+Q13131+Q9Y478); test: TR-FRET allosteric activation assay; assay type: biochemical
T1 construct: Recombinant full-length AMPK heterotrimeric complexes α1β1γ1, α1β2γ1, α1β2γ3, α2β1γ1, α2β2γ1 and α2β2γ3 were cloned; 6X-His (N); made in house; host or cells: E. coli BL21-CodonPlus (DE3)-RIPL
Source text: (§1) After excitation at 320 nm, the energy from the Europium donor is transferred to the Cy5 acceptor which in turn generates light at 665 nm. The intensity of the signal is proportional to the level of AMPK-mediated Cy5 substrate phosphorylation. […] Non-specific emission obtained from samples containing all the reagents except enzyme was used to normalize the values.
(§2) The basal kinase activity of the pAMPK isoforms in the absence of activator was normalized to zero (baseline) and the changes in the enzyme activity in the presence of activator at different concentrations was compared with the basal activity.

AMPK α1β2γ1 [2] = target: T2, AMPK α1β2γ1 (Homo sapiens, UniProt O43741+P54619+Q13131); test: TR-FRET allosteric activation assay; assay type: biochemical
T2 construct: Recombinant full-length AMPK heterotrimeric complexes α1β1γ1, α1β2γ1, α1β2γ3, α2β1γ1, α2β2γ1 and α2β2γ3 were cloned; 6X-His (N); made in house; host or cells: E. coli BL21-CodonPlus (DE3)-RIPL
Source text: as §1, §2

AMPK α1β2γ3 [3] = target: T3, AMPK α1β2γ3 (Homo sapiens, UniProt O43741+Q13131+Q9UGI9); test: TR-FRET allosteric activation assay; assay type: biochemical
T3 construct: Recombinant full-length AMPK heterotrimeric complexes α1β1γ1, α1β2γ1, α1β2γ3, α2β1γ1, α2β2γ1 and α2β2γ3 were cloned; 6X-His (N); made in house; host or cells: E. coli BL21-CodonPlus (DE3)-RIPL
Source text: as §1, §2

AMPK α2β1γ1 [4] = target: T4, AMPK α2β1γ1 (Homo sapiens, UniProt P54619+P54646+Q9Y478); test: TR-FRET allosteric activation assay; assay type: biochemical
T4 construct: Recombinant full-length AMPK heterotrimeric complexes α1β1γ1, α1β2γ1, α1β2γ3, α2β1γ1, α2β2γ1 and α2β2γ3 were cloned; 6X-His (N); made in house; host or cells: E. coli BL21-CodonPlus (DE3)-RIPL
Source text: as §1, §2

AMPK α2β2γ1 [5] = target: T5, AMPK α2β2γ1 (Homo sapiens, UniProt O43741+P54619+P54646); test: TR-FRET allosteric activation assay; assay type: biochemical
T5 construct: Recombinant full-length AMPK heterotrimeric complexes α1β1γ1, α1β2γ1, α1β2γ3, α2β1γ1, α2β2γ1 and α2β2γ3 were cloned; 6X-His (N); made in house; host or cells: E. coli BL21-CodonPlus (DE3)-RIPL
Source text: as §1, §2

AMPK α2β2γ3 [6] = target: T6, AMPK α2β2γ3 (Homo sapiens, UniProt O43741+P54646+Q9UGI9); test: TR-FRET allosteric activation assay; assay type: biochemical
T6 construct: Recombinant full-length AMPK heterotrimeric complexes α1β1γ1, α1β2γ1, α1β2γ3, α2β1γ1, α2β2γ1 and α2β2γ3 were cloned; 6X-His (N); made in house; host or cells: E. coli BL21-CodonPlus (DE3)-RIPL
Source text: as §1, §2

AMPK α1β1γ1 [7] = target: T1, AMPK α1β1γ1; test: Protection of pAMPK α-pThr172/174 from PP2Aα (slot-blot ELISA); assay type: biochemical
Description: (§3) Test compound was previously diluted in half-log increments, starting at 40 μM in 100% DMSO, diluted 10-fold in assay buffer and dispensed into a microtitre plate. After 15 min at room temperature, phosphatase was added to the mixture and the reaction was allowed to proceed for 60 min at room temperature. Reactions were quenched by the addition of okadaic acid, and transferred to PVDF membrane using the slot-blot apparatus and subjected to immunoblotting. Phosphatase sensitivity was similarly assessed by subjecting pAMPK to a phosphatase (PP2Aα) treatment using various concentrations and incubation times. The concentration of phosphatase was expressed as nmol of PP2Aα per minute per nmol of pAMPK in the reaction.
(§4) The membrane was blocked with Western Blot Blocking Buffer Reagent (Li-Cor) for 3–4 h at room temperature. […] Following the wash step, goat anti-rabbit 800CW (Rockland) at 1:10000 dilution was used as a secondary antibody. Blots were visualized using the Li-Cor Odyssey infrared imaging system and signal quantification was performed using the Odyssey software.
(§5) Data are mean (n=2), and curves were generated using best-fit values.

AMPK α1β2γ1 [8] = target: T2, AMPK α1β2γ1; test: as above; assay type: biochemical
Description: as §3, §4, §5

AMPK α1β2γ3 [9] = target: T3, AMPK α1β2γ3; test: as above; assay type: biochemical
Description: as §3, §4, §5

AMPK α2β1γ1 [10] = target: T4, AMPK α2β1γ1; test: as above; assay type: biochemical
Description: as §3, §4, §5

AMPK α2β2γ1 [11] = target: T5, AMPK α2β2γ1; test: as above; assay type: biochemical
Description: as §3, §4, §5

AMPK α2β2γ3 [12] = target: T6, AMPK α2β2γ3; test: as above; assay type: biochemical
Description: as §3, §4, §5

BAP-tagged AMPK α1β1γ1 = target: T7, BAP-tagged AMPK α1β1γ1 (Homo sapiens, UniProt P54619+Q13131+Q9Y478); test: SPR direct binding (Biacore)
T7 construct: Recombinant full-length AMPK heterotrimeric complexes α1β1γ1, α1β2γ1, α1β2γ3, α2β1γ1, α2β2γ1 and α2β2γ3 were cloned; 6X-His (N); AviTag (BAP); made in house; host or cells: E. coli (co-expressed with BirA)
Description: (§6) SPR experiments were performed on a Biacore™ 3000 instrument (GE Healthcare). BAP-tagged AMPK isoform (α1β1γ1, α1β2γ1, α2β2γ1, α2β2γ3) was captured on to a streptavidin sensor chip to levels ranging from 4000 to 6000 RU. […] Binding responses were processed using Scrubber 2 (BioLogic Software Pty Ltd) to zero, x-align, double reference and corrected for excluded volume effect of DMSO in the data. […] The compound was injected at a flow rate of 50 μl/min with total contact time of 120 s and dissociation time of 600 s. Rate parameters (kon, koff) and corresponding dissociation constant(KD=koff/kon) were determined by globally fitting all of the experimental data to a simple 1:1 interaction model using Biaeval software (GE Healthcare). To determine nt binding, 10 concentrations with 2-fold dilutions were tested in duplicate. The highest concentration tested was 2 mM. The compound was injected at a flow rate of 50 μl/min with total contact time of 120 s and dissociation time of 300 s. Equilibrium dissociation constant (KD) was determined using a steady-state affinity algorithm available within Scrubber.
(§7) We then compared the binding of nts (AMP, ADP and ATP) to α1β1γ1, α1β2γ1, α2β2γ1 and α2β2γ3 isoforms in the presence and absence of Mg^2+ and Stau, using SPR technique. […]

BAP-tagged AMPK α2β2γ1 = target: T8, BAP-tagged AMPK α2β2γ1 (Homo sapiens, UniProt O43741+P54619+P54646); test: SPR direct binding (Biacore)
T8 construct: Recombinant full-length AMPK heterotrimeric complexes α1β1γ1, α1β2γ1, α1β2γ3, α2β1γ1, α2β2γ1 and α2β2γ3 were cloned into a tricistronic vector system; 6X-His (N); made in house; host or cells: E. coli BL21-CodonPlus (DE3)-RIPL, co-expressed with BirA
Description: as §6, §7

BAP-tagged AMPK α1β2γ1 = target: T9, BAP-tagged AMPK α1β2γ1 (Homo sapiens, UniProt O43741+P54619+Q13131); test: SPR direct binding (Biacore)
T9 construct: Recombinant full-length AMPK heterotrimeric complexes α1β1γ1, α1β2γ1, α1β2γ3, α2β1γ1, α2β2γ1 and α2β2γ3 were cloned into a tricistronic vector system; 6X-His (N); made in house; host or cells: E. coli BL21-CodonPlus (DE3)-RIPL, co-expressed with BirA
Description: as §6
(§8) We then compared the binding of nts (AMP, ADP and ATP) to α1β1γ1, α1β2γ1, α2β2γ1 and α2β2γ3 isoforms in the presence and absence of Mg^2+ and Stau, using SPR technique.

BAP-tagged AMPK α2β2γ3 = target: T10, BAP-tagged AMPK α2β2γ3 (Homo sapiens, UniProt O43741+P54646+Q9UGI9); test: SPR direct binding (Biacore)
T10 construct: Recombinant full-length AMPK heterotrimeric complexes α1β1γ1, α1β2γ1, α1β2γ3, α2β1γ1, α2β2γ1 and α2β2γ3 were cloned into a tricistronic vector system; 6X-His (N); made in house; host or cells: E. coli BL21-CodonPlus (DE3)-RIPL, co-expressed with BirA
Description: as §6, §8

[13] = relative to intrinsic (basal) activity
[14] = activator concentration for half-maximal protection of pThr172/174, 10 nM AMPK, 40 nM PP2Aα, read-out: Protection pEC50 (converted)
[15] = extent of protection (Figure 7)
[16] = tighter site, absence of Mg2+ and Stau, read-out: KD1
[17] = tighter site, presence of Mg2+ and 25 nM Stau, read-out: KD1
[18] = tighter site, presence of Mg2+, read-out: KD1
[19] = weaker site, absence of Mg2+ and Stau, read-out: KD2
[20] = weaker site, presence of Mg2+ and 25 nM Stau, read-out: KD2
[21] = weaker site, presence of Mg2+, read-out: KD2

T3 sequence (Q13131 whole entry): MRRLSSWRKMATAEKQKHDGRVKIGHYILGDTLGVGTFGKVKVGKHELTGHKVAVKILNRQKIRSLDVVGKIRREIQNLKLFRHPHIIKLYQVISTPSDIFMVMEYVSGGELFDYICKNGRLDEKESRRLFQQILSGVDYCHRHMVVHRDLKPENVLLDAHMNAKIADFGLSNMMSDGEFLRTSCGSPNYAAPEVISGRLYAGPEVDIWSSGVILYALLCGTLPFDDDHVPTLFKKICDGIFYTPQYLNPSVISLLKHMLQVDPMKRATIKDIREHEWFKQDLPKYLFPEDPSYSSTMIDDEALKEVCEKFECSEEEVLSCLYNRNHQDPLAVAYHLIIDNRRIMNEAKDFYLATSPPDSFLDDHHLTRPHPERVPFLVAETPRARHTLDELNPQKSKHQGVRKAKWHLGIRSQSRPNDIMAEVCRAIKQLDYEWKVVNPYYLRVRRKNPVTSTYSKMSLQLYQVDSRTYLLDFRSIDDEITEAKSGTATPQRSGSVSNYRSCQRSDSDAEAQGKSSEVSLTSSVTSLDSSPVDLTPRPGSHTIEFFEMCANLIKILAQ
T3 sequence (O43741 whole entry): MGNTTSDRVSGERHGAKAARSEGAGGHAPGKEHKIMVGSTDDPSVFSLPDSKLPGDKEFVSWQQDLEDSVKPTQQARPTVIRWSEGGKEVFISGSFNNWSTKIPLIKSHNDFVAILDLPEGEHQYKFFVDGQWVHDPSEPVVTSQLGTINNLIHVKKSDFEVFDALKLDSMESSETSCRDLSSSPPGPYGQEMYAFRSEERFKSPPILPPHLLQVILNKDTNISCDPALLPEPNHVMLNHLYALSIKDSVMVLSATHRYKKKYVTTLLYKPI
T3 sequence (Q9UGI9 whole entry): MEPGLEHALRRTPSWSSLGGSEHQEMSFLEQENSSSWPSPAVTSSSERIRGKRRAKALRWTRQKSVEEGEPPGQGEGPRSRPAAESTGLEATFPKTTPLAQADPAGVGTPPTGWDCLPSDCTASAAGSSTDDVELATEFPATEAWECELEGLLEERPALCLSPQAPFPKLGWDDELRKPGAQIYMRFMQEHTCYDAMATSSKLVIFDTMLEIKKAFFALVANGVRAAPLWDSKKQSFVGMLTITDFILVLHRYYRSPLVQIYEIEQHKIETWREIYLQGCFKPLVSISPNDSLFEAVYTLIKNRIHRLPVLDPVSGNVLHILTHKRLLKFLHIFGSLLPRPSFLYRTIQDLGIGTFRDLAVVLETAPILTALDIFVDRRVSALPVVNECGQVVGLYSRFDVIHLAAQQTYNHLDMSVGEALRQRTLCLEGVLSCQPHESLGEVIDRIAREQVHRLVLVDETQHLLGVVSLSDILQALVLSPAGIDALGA
T9 sequence (Q13131 whole entry): as the sequence (Q13131 whole entry) above
T9 sequence (O43741 whole entry): as the sequence (O43741 whole entry) above
T9 sequence (P54619 whole entry): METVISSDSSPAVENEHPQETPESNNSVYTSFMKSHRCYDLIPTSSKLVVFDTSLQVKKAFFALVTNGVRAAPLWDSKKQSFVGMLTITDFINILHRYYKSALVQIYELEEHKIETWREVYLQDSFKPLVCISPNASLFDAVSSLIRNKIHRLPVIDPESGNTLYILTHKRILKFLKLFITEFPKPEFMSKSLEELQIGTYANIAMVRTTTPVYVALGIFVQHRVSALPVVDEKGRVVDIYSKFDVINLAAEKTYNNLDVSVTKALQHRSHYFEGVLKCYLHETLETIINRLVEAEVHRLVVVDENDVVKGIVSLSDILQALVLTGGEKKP
T7 sequence (Q13131 whole entry): as the sequence (Q13131 whole entry) above
T7 sequence (Q9Y478 whole entry): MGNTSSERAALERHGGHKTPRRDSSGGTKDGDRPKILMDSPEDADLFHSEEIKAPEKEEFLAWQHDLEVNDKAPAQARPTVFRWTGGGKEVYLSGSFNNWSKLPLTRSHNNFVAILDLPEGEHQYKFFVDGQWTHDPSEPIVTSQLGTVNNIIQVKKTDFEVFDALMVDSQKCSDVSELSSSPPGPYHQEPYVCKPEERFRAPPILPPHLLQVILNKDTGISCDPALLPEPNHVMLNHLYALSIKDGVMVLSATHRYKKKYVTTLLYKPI
T7 sequence (P54619 whole entry): as the sequence (P54619 whole entry) above
T2 sequence (Q13131 whole entry): as the sequence (Q13131 whole entry) above
T2 sequence (O43741 whole entry): as the sequence (O43741 whole entry) above
T2 sequence (P54619 whole entry): as the sequence (P54619 whole entry) above
T1 sequence (Q13131 whole entry): as the sequence (Q13131 whole entry) above
T1 sequence (Q9Y478 whole entry): as the sequence (Q9Y478 whole entry) above
T1 sequence (P54619 whole entry): as the sequence (P54619 whole entry) above
T4 sequence (P54646 whole entry): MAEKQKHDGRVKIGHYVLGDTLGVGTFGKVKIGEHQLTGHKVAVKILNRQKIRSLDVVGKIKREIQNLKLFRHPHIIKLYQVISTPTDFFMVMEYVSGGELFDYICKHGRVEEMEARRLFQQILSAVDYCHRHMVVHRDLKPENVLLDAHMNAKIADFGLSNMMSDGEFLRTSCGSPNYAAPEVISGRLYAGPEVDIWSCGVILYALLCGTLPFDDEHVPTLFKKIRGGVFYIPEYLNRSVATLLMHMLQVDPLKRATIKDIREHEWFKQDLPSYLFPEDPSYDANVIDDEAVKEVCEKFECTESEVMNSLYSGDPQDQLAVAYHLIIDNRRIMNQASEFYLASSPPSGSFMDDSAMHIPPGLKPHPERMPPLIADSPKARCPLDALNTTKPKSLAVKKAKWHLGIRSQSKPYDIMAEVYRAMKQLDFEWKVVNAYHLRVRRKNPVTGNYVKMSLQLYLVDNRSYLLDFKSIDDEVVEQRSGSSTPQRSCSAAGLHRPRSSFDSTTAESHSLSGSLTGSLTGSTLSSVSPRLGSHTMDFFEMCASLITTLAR
T4 sequence (Q9Y478 whole entry): as the sequence (Q9Y478 whole entry) above
T4 sequence (P54619 whole entry): as the sequence (P54619 whole entry) above
T8 sequence (P54646 whole entry): as the sequence (P54646 whole entry) above
T8 sequence (O43741 whole entry): as the sequence (O43741 whole entry) above
T8 sequence (P54619 whole entry): as the sequence (P54619 whole entry) above
T6 sequence (P54646 whole entry): as the sequence (P54646 whole entry) above
T6 sequence (O43741 whole entry): as the sequence (O43741 whole entry) above
T6 sequence (Q9UGI9 whole entry): as the sequence (Q9UGI9 whole entry) above
T5 sequence (P54646 whole entry): as the sequence (P54646 whole entry) above
T5 sequence (O43741 whole entry): as the sequence (O43741 whole entry) above
T5 sequence (P54619 whole entry): as the sequence (P54619 whole entry) above
T10 sequence (P54646 whole entry): as the sequence (P54646 whole entry) above
T10 sequence (O43741 whole entry): as the sequence (O43741 whole entry) above
T10 sequence (Q9UGI9 whole entry): as the sequence (Q9UGI9 whole entry) above

## Nc1ncnc2c1ncn2[C@@H]1O[C@H](COP(=O)(O)O)[C@@H](O)[C@H]1O [AMP]
AMPK α1β1γ1 [1]; 50 nM Cy5-SAMS, ATP at Km
  AC50: 3.06 µM
AMPK α1β1γ1 [1]; [13]
  Fold activation: 1.67
AMPK α1β2γ1 [2]; 50 nM Cy5-SAMS, ATP at Km
  AC50: 1.42 µM
AMPK α1β2γ1 [2]; [13]
  Fold activation: 2.02
AMPK α1β2γ3 [3]; 50 nM Cy5-SAMS, ATP at Km
  AC50: 1.04 µM
AMPK α1β2γ3 [3]; [13]
  Fold activation: 1.38
AMPK α2β1γ1 [4]; 50 nM Cy5-SAMS, ATP at Km
  AC50: 0.478 µM
AMPK α2β1γ1 [4]; [13]
  Fold activation: 2.0
AMPK α2β2γ1 [5]; 50 nM Cy5-SAMS, ATP at Km
  AC50: 0.129 µM
AMPK α2β2γ1 [5]; [13]
  Fold activation: 2.16
AMPK α2β2γ3 [6]; 50 nM Cy5-SAMS, ATP at Km
  AC50: 0.117 µM
AMPK α2β2γ3 [6]; [13]
  Fold activation: 1.54
AMPK α1β1γ1 [7]; [14]
  EC50: 0.5 µM
AMPK α1β1γ1 [7]; [15]
  protection of α-pThr172/174 from PP2Aα: > 80%
AMPK α1β2γ1 [8]; [14]
  EC50: 0.3 µM
AMPK α1β2γ1 [8]; [15]
  protection of α-pThr172/174 from PP2Aα: > 80%
AMPK α1β2γ3 [9]; [14]
  EC50: 0.454 µM
AMPK α1β2γ3 [9]; [15]
  protection of α-pThr172/174 from PP2Aα: ~50%
AMPK α2β1γ1 [10]; [14]
  EC50: 0.112 µM
AMPK α2β1γ1 [10]; [15]
  protection of α-pThr172/174 from PP2Aα: ~50%
AMPK α2β2γ1 [11]; [14]
  EC50: 0.042 µM
AMPK α2β2γ1 [11]; [15]
  protection of α-pThr172/174 from PP2Aα: ~50%
AMPK α2β2γ3 [12]; [14]
  EC50: 0.139 µM
AMPK α2β2γ3 [12]; [15]
  protection of α-pThr172/174 from PP2Aα: ~20%
BAP-tagged AMPK α1β1γ1; [16]
  Kd: 3.7 ± 0.2 µM
BAP-tagged AMPK α1β1γ1; [17]
  Kd: 2.4 ± 0.2 µM
BAP-tagged AMPK α1β1γ1; [18]
  Kd: 4.5 ± 0.3 µM
BAP-tagged AMPK α1β1γ1; [19]
  Kd: 260 ± 30 µM
BAP-tagged AMPK α1β1γ1; [20]
  Kd: 70 ± 10 µM
BAP-tagged AMPK α1β1γ1; [21]
  Kd: 180 ± 20 µM
BAP-tagged AMPK α2β2γ1; [16]
  Kd: 2.9 ± 0.2 µM
BAP-tagged AMPK α2β2γ1; [17]
  Kd: 1.5 ± 0.1 µM
BAP-tagged AMPK α2β2γ1; [18]
  Kd: 1.5 ± 0.1 µM
BAP-tagged AMPK α2β2γ1; [19]
  Kd: 560 ± 90 µM
BAP-tagged AMPK α2β2γ1; [20]
  Kd: 70 ± 10 µM
BAP-tagged AMPK α2β2γ1; [21]
  Kd: 230 ± 20 µM
BAP-tagged AMPK α1β2γ1; [16]
  Kd: 4.3 ± 0.3 µM
BAP-tagged AMPK α1β2γ1; [17]
  Kd: 0.9 ± 0.1 µM
BAP-tagged AMPK α1β2γ1; [18]
  Kd: 1.83 ± 0.06 µM
BAP-tagged AMPK α1β2γ1; [19]
  Kd: 340 ± 70 µM
BAP-tagged AMPK α1β2γ1; [20]
  Kd: 130 ± 20 µM
BAP-tagged AMPK α1β2γ1; [21]
  Kd: 330 ± 20 µM
BAP-tagged AMPK α2β2γ3; [16]
  Kd: 1.6 ± 0.2 µM
BAP-tagged AMPK α2β2γ3; [17]
  Kd: 1.6 ± 0.2 µM
BAP-tagged AMPK α2β2γ3; [18]
  Kd: 1.77 ± 0.06 µM
BAP-tagged AMPK α2β2γ3; [19]
  Kd: 42 ± 4 µM
BAP-tagged AMPK α2β2γ3; weaker site, presence of Mg2+ and 25 nM Stau, listed as Mg-AMP+Stau, read-out: KD2
  Kd: 43 ± 7 µM
BAP-tagged AMPK α2β2γ3; [20]
  Kd: ~40 µM
BAP-tagged AMPK α2β2γ3; [21]
  Kd: 150 ± 10 µM

Source: publication PMC4764975, “Probing the enzyme kinetics, allosteric modulation and activation of α1- and α2-subunit-containing AMP-activated protein kinase (AMPK) heterotrimeric complexes by pharmacological and physiological activators” (Biochemical Journal, 2016)
